Consider one molecule from article PMC6093650, “Antidepressive and anxiolytic effects of ostruthin, a TREK-1 channel activator” (PLoS ONE, 2018).

In test [1] the test system is general locomotor activity of mice. The experiment in a line: voluntary wheel running test. The format is in vivo. The settings on record: 0, 2, 5, 20 mg/kg i.p., after elevated plus maze, 5 min, n = 7. An excerpt: Male ICR mice (n = 317 in total) aged 5 weeks and weighing 32 ± 2 g were purchased from Shimizu Laboratory Supplies (Kyoto, Japan). For the social defeat stress test, we used 28 C57BL/6J mice (5 weeks old, Shimizu Laboratory Supplies) and 30 ICR mice (7–8 weeks old, Charles River Labs Japan, Yokohama, Kanagawa, Japan). Mice were maintained for at least 1 week prior to experiments. Animals were kept in groups in plastic cages. They had free access to food and water, and were kept in a 12-h light/dark cycle (08:00–20:00). Experiments were carried out between 10:00 and 18:00 in a quiet and air-conditioned experimental room, in which mice were habituated for at least 30 min before each experiment. Animal experiments were performed in accordance with the guidelines of the Physiological Society of Japan and were approved by the Committees on Animal Experiments at Kansai Medical University and the Kurashiki University of Science and the Arts. Ostruthin was initially dissolved in DMSO at higher concentration (100 mM) and then diluted in phosphate-buffered saline (PBS). […]
Immediately after the elevated plus maze test, the same mouse was subjected to the voluntary wheel running test. The number of rotations was measured for 5 min using an activity monitoring running wheel (Muromachi Kikai, Tokyo, Japan).

Test [2] deals with GABAergic mIPSCS in the amygdala neurons. Kind of test: GABAergic mIPSCs in amygdala neurons (preliminary data). The format is cell-based. The settings on record: 100 μM.
A further test concerns c-Fos immunoreactivity. Kind of test: anti-c-Fos immunostaining of mouse brain nuclei. In kind it is in vivo, mice. As to the method: The mouse was put into an anesthetizing jar and isoflurane (>0.2 ml) was added to the jar. After confirming that mouse was deeply anesthetized, its brain was fixed by transcardiac perfusion with 4% paraformaldehyde in PBS. The brains were sliced coronally (100 μm in thickness) using a microslicer (PRO7, Dosaka, Kyoto, Japan). The free-floating slices were reacted with an anti-c-Fos antibody (1: 200, goat, Santa Cruz, Dallas, TX) dissolved in PBS containing 0.3% BSA and 0.3% Triton-X-100, at 4°C for 48 h. The immunoreaction was visualized using a secondary antibody (rabbit anti-goat IgG, Vectastain Elite ABC-HRP Kit, Vector Labs, Burlingame, CA) and 3,3'-Diaminobenzidine (DAB, Tokyo Chemical Industry, Tokyo, Japan) at room temperature in accordance with the manufacturer’s instructions.
For statistical analysis, the number of c-Fos-immunoreactive cells was quantified using the Image-J software. Briefly, fields (0.16 mm^2) of c-Fos immunoreactivity were acquired by a microscope IX70 (Olympus) using a CCD camera. DAB-positive nuclei, of which diameters were longer than 7 μm, were considered as anti-c-Fos-immunoreactive neurons. The immunoreactive cell numbers were normalized to cells/mm^2.

Test [3] deals with depression-like behavior of mice. Kind of test: social defeat stress test. The settings on record: C57BL/6J mice after 9 days of defeat, p = 0.440, n = 14. In kind it is in vivo. An excerpt: Male ICR mice (n = 317 in total) aged 5 weeks and weighing 32 ± 2 g were purchased from Shimizu Laboratory Supplies (Kyoto, Japan). For the social defeat stress test, we used 28 C57BL/6J mice (5 weeks old, Shimizu Laboratory Supplies) and 30 ICR mice (7–8 weeks old, Charles River Labs Japan, Yokohama, Kanagawa, Japan). Mice were maintained for at least 1 week prior to experiments. Animals were kept in groups in plastic cages. They had free access to food and water, and were kept in a 12-h light/dark cycle (08:00–20:00). Experiments were carried out between 10:00 and 18:00 in a quiet and air-conditioned experimental room, in which mice were habituated for at least 30 min before each experiment. Animal experiments were performed in accordance with the guidelines of the Physiological Society of Japan and were approved by the Committees on Animal Experiments at Kansai Medical University and the Kurashiki University of Science and the Arts. Ostruthin was initially dissolved in DMSO at higher concentration (100 mM) and then diluted in phosphate-buffered saline (PBS). The diluted solution was mixed vigorously for more than 10 min before the experiments, and an equal volume of DMSO was added to PBS as a control. […] Time spent in the target zone was measured firstly with the empty mesh enclosure for 150 sec. […]

For test [4], the system named is mice anxiety-like behavior. The experiment in a line: light/dark box test. In kind it is in vivo. The settings on record: n = 8. An excerpt:
(§1) Male ICR mice (n = 317 in total) aged 5 weeks and weighing 32 ± 2 g were purchased from Shimizu Laboratory Supplies (Kyoto, Japan). For the social defeat stress test, we used 28 C57BL/6J mice (5 weeks old, Shimizu Laboratory Supplies) and 30 ICR mice (7–8 weeks old, Charles River Labs Japan, Yokohama, Kanagawa, Japan). Mice were maintained for at least 1 week prior to experiments. Animals were kept in groups in plastic cages. They had free access to food and water, and were kept in a 12-h light/dark cycle (08:00–20:00). Experiments were carried out between 10:00 and 18:00 in a quiet and air-conditioned experimental room, in which mice were habituated for at least 30 min before each experiment. Animal experiments were performed in accordance with the guidelines of the Physiological Society of Japan and were approved by the Committees on Animal Experiments at Kansai Medical University and the Kurashiki University of Science and the Arts. Ostruthin was initially dissolved in DMSO at higher concentration (100 mM) and then diluted in phosphate-buffered saline (PBS). The diluted solution was mixed vigorously for more than 10 min before the experiments, and an equal volume of DMSO was added to PBS as a control. PBS and ostruthin were administered intraperitoneally 30 min before mice behavioral tests (0.01 ml/g body weight). Each animal was used only once, except for the wheel running test, which was carried out immediately after elevated plus maze.
The light/dark box consisted of two compartments with a total exterior size of 46 × 27 × 30 cm. One-third of the box was used as a dark compartment, which was covered with a black wall and lid, and the rest of the area was used as a light compartment. These compartments were connected via a small opening (7 × 7 cm), enabling transition between the two compartments. We placed a mouse in the center of the light area and measured the time spent in the light area and the number of transitions between the light and dark compartments for 5 minutes.

The subject of test [5] is depression-like behavior of mice. The experiment in a line: tail suspension test. In kind it is in vivo.
Excerpt: as §1
The tail suspension test was performed in accordance with a method reported previously. The mouse was hung on a hook using adhesive tape placed 2 cm from the extremity of its tail 50 cm above the table. The amount of time spent immobile was recorded for 5 min.

Where [6] appears, read: 5 mg/kg, 30 min after tail suspension stress, n = 4.
The mark [7] stands for this setting: i.p. 30 min before test, vs 0 mg/kg.

Turning to `CC(C)=CCC/C(C)=C/Cc1cc2ccc(=O)oc2cc1O` [ostruthin], the “number of wheel rotations (voluntary motility)” value in test [1] is recorded as “no effect at any dose”. Also, the “amplitude or frequency of GABAergic mIPSCS in the amygdala neurons” value in test [2] was “no effect”. In addition, the “stress-induced c-Fos immunoreactivity in most nuclei (PVN, PVT, CeA, BLA, DRD, DRV)” value in the test on c-Fos immunoreactivity (setting [6]) is “no significant differences”. In the test on c-Fos immunoreactivity (setting [6]), the “stress-induced increase in c-Fos immunoreactivity in the lateral septum (LS)” value was “significantly suppressed”. Further, the “anti-c-Fos immunoreactivity in non-stressed animals” value in the test on c-Fos immunoreactivity (fixed 30 min after administration, vs PBS (data not shown)) is given as “no difference”. In addition, the “time difference in the interaction area (target zone)” value in test [3] is “increased the time difference in the interaction area non-significantly”. Also, the “time spent in the light box” value is on record as “decreased” in test [4] (20 mg/kg i.p., vs 5 mg/kg) and “significantly increased” in test [4] (setting [7]). For the same molecule, the “number of transitions between the light and dark boxes” value in test [4] (highest dose (20 mg/kg) i.p.) is recorded as “non-significantly decreased”; in test [4] (setting [7]) it was “increased”. Moreover, the time spent immobile entry is given as “significantly decreased” in test [5] (amlodipine experiment: single compound vs PBS, ostruthin 5 mg/kg or amlodipine 10 mg/kg, n = 9 and 13); “decreased” in test [5] (i.p. 30 min before test, 5 min, n = 14, vs PBS); “no effect” in test [5] (ostruthin 5 mg/kg in the presence of amlodipine 10 mg/kg (co-administration)); “ineffective” in test [5] (ostruthin given 30 min after pre-administration of amlodipine, vs secondary PBS, n = 8).
